From US7470660B2, “Treatment for dark adaptation” (The Regents of the University of California, priority 2001, dated 2008)
“Also recorded” adds a separate entry of the source.

Assays:
cultured human RPE cells = test: 14C-DHA labeled POS efflux into basal media after drug treatment; type: cell-based; settings: 36 hours; 10^-7 M T3, 2.5x10^-5 M 22 (R) hydroxycholesterol or 10^-7 M cis retinoic acid; basal medium 1 mg/ml HDL; FIG. 10
Procedure: Bovine outer photoreceptor outer segments (POS) were labeled by incubating […] Coenzyme A, ATP, Mg^2+, and [^14C]-DHA. Cells grown on laminin coated Transwell plates were incubated with 12 μg/ml labeled POS in the apical chamber for 36 hours in medium containing 10% lipoprotein deficient fetal bovine serum. The basal medium was subjected to scintillation counting to determine the amount of [^14C] labeled lipids transported through the RPE cells.
This experiment determines whether compound administration can upregulate efflux of labeled POS residues to HDL, particularly by showing regulation of ^14C-DHA labeled POS efflux into basal media. An assay similar to that described in Example 4 is utilized; however, in this Example the cells were treated with T3, 9 cis-retinoic acid, and 22 (R) hydroxycholesterol in the concentrations described above for 36 hours. Total radioactivity (cpm) in the absence of HDL purification was determined by liquid scintillation counting of the basal media.
Specifically, cells were grown for 1 to 2 weeks at confluence on Transwell plates. ^14C-labeled POS […] were added to the apical medium. The apical and basal medium comprised either 10^−7 M T3, 2.5×10^−5 M 22 (R) hydroxycholesterol, or 10^−7 M cis retinoic acid. The basal medium contained 1 mg/ml HDL. After 36 hours the basal medium was collected and ^14C counts were determined by scintillation counting.

[1] = test system: apo E secretion from RPE cells; test: Apo E secretion into basal media of RPE cells, western blot; type: cell-based, human; settings: 36 hour incubation, both chambers, T3 10^-7 M, 22 (R) hydroxycholesterol 2.5x10^-6 M, cis retinoic acid 10^-7 M (10^-6 M elsewhere in the source), FIG. 6
Procedure: Primary cultures of normal human RPE cells from passages 5 to 10 were used for the experiments described. RPE cells were grown to confluence on laminin-coated 6 well Transwell tissue culture plates (Costar) with DMEM-H21 containing 10% fetal bovine serum, 2 mM glutamine, 50 μg/ml gentamicin and 2.5 mg/ml fungizone in the top and bottom chambers. […] Cells were grown for at least 1 week at confluence prior to drug treatment. Cells to be treated with drugs were incubated in serum free DMEM-H21 prior to drug addition. Drug treatments were in serum free DMEM-H21 with or without 10^−7 M thyroid hormone (T3), 2.5×10^−6 M 22 (R) hydroxycholesterol, or 10^−7 M cis retinoic acid in both chambers for 36 hours.
Total protein content was determined by a modified Lowry assay (Bio-Rad DC kit, Richmond, Calif.). Concentrated media (50 μg protein) was made to Start Buffer (0.025 M NaCl, 0.010 M tris (pH 8.5), 5 mM MnCl2) and adsorbed onto a 0.1 ml column containing Heparin-Sepharose CL-4B (Pharmacia, Uppsala, Sweden). Following a 2 ml wash in Start Buffer, the apo E containing bound fraction was eluted with 0.5M NaCl in Start buffer. The eluate was concentrated to 20 μl and buffer-exchanged to SalEN by centrifugal ultrafiltration (Biomax, 5k MCO, Millipore, Bedford, Mass.). Apo E was resolved by tris-tricine buffered SDS-PAGE (5-25% linear acrylamide gradient) and proteins electrophoetically transferred (55V, 18 h) to nitrocelluose membrane filters (Schleicher and Shuell, Keen, N.H.). Membranes were blocked with 10% bovine serum albumin at room temperature and probed with 1% goat anti-human apo E antiserum (18 h, 3° C.) prepared in 0.15% NaCl, 1 mM EDTA (pH 7.4), 0.1% Triton X-100 (SalET). The primary-bound anti-apo E antibodies were detected colorimetrically with horseradish peroxidase conjugated rabbit anti-goat Ig (H+L) and NiCl2-enhanced diaminobenzine staining. Stained bands were compared densitometrically from the digitized scanned image (NIH Image, v.1.62).
In order to distinguish apical (A) from basally (B) secreted apo E, RPE cells were cultured on laminin-coated Transwell plates. […] Total protein and apo E-specific protein concentrations were measured from media pooled and concentrated from 3-6 replicate wells. To assess apo E-specific secretion, apo E was purified from conditioned media by heparin-sepharose affinity chromatography and visualized by western blotting.
Since RPE cells express lxr α as well as thyroid hormone receptors (TRs) and retinoid-X-receptors (RXRs), the effect of 10^−7 M T3, 2.5×10^−6 M 22 (R) hydroxycholesterol (HC) (an lxr α agonist), or 10^−7 M cis retinoic acid (cRA) (an RXR agonist) on apo E secretion from RPE cells was tested. FIG. 6 illustrates the same experimental procedure as described above, but with basal and apical media both containing the following compounds for a 36 hour incubation: T3 (10^−7) M (T); 9 cis-RA (10^−6) M (RA); and 22 (R) hydroxycholesterol 2.5 (10^−6) M (HC).
Control (C) refers to no drug addition; T refers to 10^−7 M T3; RA refers to 10^−7 M cis retinoic acid; and HC refers to 2.5×10^−6 M 22(R) hydroxycholesterol. Basal media from 3 wells were combined, concentrated, and apo E was detected by western blotting.

[2] = test system: apo E secretion from RPE cells; test: Apo E secretion from RPE cells, ELISA; type: cell-based, human; settings: 36 hours, serum free DMEM; 10^-7 M T3; 2.5x10^-6 M 22(R) hydroxycholesterol; 10^-7 M cis retinoic acid; alone and in combination; FIG. 14
Procedure: RPE cells were treated for 36 hours on Transwell® plates with serum free DMEM +/− the drugs indicated. Control refers to no drug addition, T refers to 10^−7 M T3; HC refers to 2.5×10^−6 M 22(R) hydroxycholesterol; RA refers to 10^−7 M cis retinoic acid. N=6, * indicates p<0.05 (two-tailed t-test) compared to Control.
Media samples treated with 0.1% Tween-20 containing 1% bovine serum albumin were incubated (37° C., 4 h) in 96-well plates previously coated with apo E-affinity purified goat anti-apo E antibody. Apo E was detected using a secondary antibody-peroxidase conjugate and 3.3.5.5′-[…] (TMB) substrate. Optical density was measured at 450 nm. The assay was calibrated with purified plasma apo E. The dynamic range of the assay was 1-40 ng/ml apo E with a CV<5%.

[3] = test system: Human retinal pigment epithelial cells; test: 14C-labeled lipid efflux from RPE cells with HDL, apoA-I or apoA-I vesicles; type: cell-based; settings: basal chamber, 36 hours, vs Control; FIG. 19
Procedure: The present inventors have created liposomes comprising apoA-I (artificial preβ1 HDL). Artificial discoidal apoA-I liposomes comprising purified human plasma apoAI, the saturated phospholipid dimyristoyl-L-α-phoshatidylcholine (DMPC) and cholesterol were constructed by the sodium cholate dialysis method. Liposomes were prepared using a molar ratio of approximately 1/5/95, apoA-I/free cholesterol/DMPC. Human retinal pigment epithelial cells grown on 6 well laminin coated Transwell® plates were fed ^14C-docosahexaenoic acid labeled photoreceptor outer segments in medium containing 5% lipoprotein free fetal bovine serum for 36 hours (apical chamber). Basal chambers contained serum free medium and either no human high density lipoprotein (HDL) (Control), 100 μg/ml of human HDL, pure human apoA-I, or human apoA-I vesicles. An aliquot of the basal medium was subjected to liquid scintillation counting. Wells were treated in triplicate. HDL stimulated ^14C-labeled lipid efflux by about 60%.

**Q.** How did the “transport of 14C-labeled POS to the basal medium” value (cultured human RPE cells) turn out when `CC(C)CC[C@@H](O)[C@@H](C)[C@H]1CC[C@H]2[C@@H]3CC=C4C[C@@H](O)CC[C@]4(C)[C@H]3CC[C@]12C` [22 (R) hydroxycholesterol] was run?
**A.** Its value is “increased transport of ^14C-labeled POS to the basal medium”.

**Q.** What about the “basal Apo E expression/secretion (Western blot of basal media)” value [1] of the same compound?
**A.** The value was “increased basal expression of Apo E”.

**Q.** And the “basal Apo E expression/secretion (Western blot of basal media)” value ([1]; listed as HC)?
**A.** The value was “stimulate basal apo E secretion”.

**Q.** What about the “apo E secretion (ELISA)” value [2] of the same compound?
**A.** Its value is “upregulate apo E secretion”.

**Q.** What does the source list for `N[C@@H](Cc1cc(I)c(Oc2ccc(O)c(I)c2)c(I)c1)C(=O)O` [T3, 3,5,3′-L-triiodothyronine]?
**A.** transport of 14C-labeled POS to the basal medium (cultured human RPE cells): increased transport of ^14C-labeled POS to the basal medium; basal Apo E expression/secretion (Western blot of basal media) [1]: increased basal expression of Apo E; also recorded: stimulate basal apo E secretion; apo E secretion (ELISA) [2]: upregulate apo E secretion

**Q.** What does the source list for `CC1=C(/C=C/C(C)=C\C=C\C(C)=C\C(=O)O)C(C)(C)CCC1` [cis retinoic acid, 9 cis-retinoic acid]?
**A.** transport of 14C-labeled POS to the basal medium (cultured human RPE cells): increased transport of ^14C-labeled POS to the basal medium; basal Apo E expression/secretion (Western blot of basal media) ([1]; listed as 9 cis-RA): increased basal expression of Apo E; basal Apo E expression/secretion (Western blot of basal media) ([1]; listed as RA): stimulate basal apo E secretion; apo E secretion (ELISA) [2]: upregulate apo E secretion

**Q.** With “ApoA-I: pure human apoA-I, purified from human plasma; major lipoprotein component of HDL” as the compound, how does the “stimulation of 14C-labeled lipid efflux (in words)” value [3] read?
**A.** Its value is “appeared to stimulate”.
